{"source": "BindingDB's records for doi:10.1021/jm980551o", "about": "(Novartis, 1999)", "assay": "Inhibition of EGF-dependent mouse keratinocyte MK cell proliferation", "data": [{"smiles": "COc1cc2ncnc(Nc3cccc(Cl)c3)c2cc1OC", "values": [{"measurement": "IC50", "value": "< 100", "unit": "nM"}]}]}
